# Assay results taken from US10081632B2, “Substituted tetrahydropyrido[3′,2′:4,5]pyrrolo[1,2-α]pyrazine-2-carboxamides as RSK inhibitors” (Phoenix Molecular Designs, priority 2016, dated 2018).
# Where a name gives a salt, the structure may show the parent alone.
# Assays:
# [1] = Solubility assessment, 20 mg/ml solution; type: physicochemical
# Experimental: Solubility is an important property for therapeutic drug candidates. Poor solubility can lead to low bioavailability resulting in suboptimal drug delivery. It can also prevent the evaluation of test agents in animals because the concentration(s) needed to achieve the desired effect cannot be achieved to poor solubility. For solubility assessments, small molecules targeting RSK were compared. For these assessments, 100 mM solutions of the compounds dissolved in DMSO were diluted in DMEM growth media (Life Technologies) supplemented with fetal bovine serum (FBS, Life Technologies) and 100 units/ml penicillin and 100 units/ml streptomycin (Life Technologies) to make 20 mg/ml solutions. Once diluted, the solutions were vortexed and examined for the formation of precipitates. […] For Compound 26, a 100 mM solution of the compound dissolved in DMSO was diluted in phosphate buffered saline (Life Technologies) to make a 20 mg/ml solution. The stock of […] was chosen because this is the upper end of what would be required to dose mice for a range of studies including MTD, PK, PD and efficacy. The pH of this solution was determined to be 2, as previously described. […] At high concentrations some RSK inhibitors were highly soluble while others were not. Compound 0 is (R)—N-(1-benzyl-1H-pyrazol-4-yl)-9-methyl-6-oxo-6,7,8,9-tetrahydropyrido[3′,2′:4,5]pyrrolo[1,2-a]pyrazine-2-carboxamide. Compound 0 was not soluble, whereas Compounds 18, 20, 21, 25 and 26 were soluble under the same conditions (Table 5).
# 4T1 cells [2] = assay: Monolayer growth inhibition, Alamar blue assay; type: cell-based; settings: Mus musculus; 4T1 (TNBC), 5 days, single dose on day 1
# From the text: (§1) In all instances a single dose was given on day 1 of the experiment.
# HCC1143 cells [3] = assay: Monolayer growth inhibition, Alamar blue assay; type: cell-based; settings: Homo sapiens; HCC1143 (TNBC), 5 days, single dose on day 1
# From the text: as §1
# HCC1937 cells [4] = assay: Monolayer growth inhibition, Alamar blue assay; type: cell-based; settings: Homo sapiens; HCC1937 (TNBC, BRCA Mutant), 5 days, single dose on day 1
# From the text: as §1
# JIMT-1 cells [5] = assay: Monolayer growth inhibition, Alamar blue assay; type: cell-based; settings: Homo sapiens; JIMT-1 (HER2), 5 days, single dose on day 1
# From the text: as §1
# MDA-MB-231 cells [6] = assay: Monolayer growth inhibition, Alamar blue assay; type: cell-based; settings: Homo sapiens; MDA-MB-231 (TNBC), 5 days, single dose on day 1
# From the text: as §1
# MDA-MB-435 cells [7] = assay: Monolayer growth inhibition, Alamar blue assay; type: cell-based; settings: Homo sapiens; MDA-MB-435 (Melanoma), 5 days, single dose on day 1
# From the text: as §1
# MDA-MB-468 cells [8] = assay: Monolayer growth inhibition, Alamar blue assay; type: cell-based; settings: Homo sapiens; MDA-MB-468 (TNBC), 5 days, single dose on day 1
# From the text: as §1
# PC3 cells [9] = assay: Monolayer growth inhibition, Alamar blue assay; type: cell-based; settings: Homo sapiens, PC-3; PC3 (Prostate), 5 days, single dose on day 1
# From the text: as §1
# SUM149 cells [10] = assay: Monolayer growth inhibition, Alamar blue assay; type: cell-based; settings: Homo sapiens; SUM149 (TNBC, BRCA Mutant), 5 days, single dose on day 1
# From the text: as §1
# SUM149-PTXR cells [11] = assay: Monolayer growth inhibition, Alamar blue assay; type: cell-based, Human; settings: Homo sapiens; SUM149-PTXR (TNBC, BRCA Mutant), 5 days, single dose on day 1
# From the text: as §1
# All cell lines [12] = assay: Monolayer growth inhibition, Alamar blue assay, range over all cell lines; type: cell-based; settings: 120 h; range of IC50 over all cell lines of the table; read-out: IC50 Values - Alamar Blue (5 Days), Range, All
# From the text: as §1
# HCC1937 cells [13] = assay: Monolayer growth inhibition, crystal violet assay; type: cell-based; settings: Homo sapiens; HCC1937 (TNBC, BRCA Mutant), 5 days, single dose on day 1
# From the text: (§2) In all instances a single dose was given on day 1 of the experiment. […] Complete (100%) growth suppression was achievable with several of the compounds in multiple different cell lines.
# JIMT-1 cells [14] = assay: Monolayer growth inhibition, crystal violet assay; type: cell-based; settings: Homo sapiens; JIMT-1 (HER2), 5 days, single dose on day 1
# From the text: as §2
# MDA-MB-468 cells [15] = assay: Monolayer growth inhibition, crystal violet assay; type: cell-based; settings: Homo sapiens; MDA-MB-468 (TNBC), 5 days, single dose on day 1
# From the text: as §2
# 4T1 cells [16] = assay: Monolayer growth inhibition, crystal violet assay; type: cell-based; settings: Mus musculus; 4T1 (TNBC), 5 days, single dose on day 1
# From the text: as §1
# HCC1143 cells [17] = assay: Monolayer growth inhibition, crystal violet assay; type: cell-based; settings: Homo sapiens; HCC1143 (TNBC), 5 days, single dose on day 1
# From the text: as §1
# MDA-MB-231 cells [18] = assay: Monolayer growth inhibition, crystal violet assay; type: cell-based; settings: Homo sapiens; MDA-MB-231 (TNBC), 5 days, single dose on day 1
# From the text: as §1
# MDA-MB-435 cells [19] = assay: Monolayer growth inhibition, crystal violet assay; type: cell-based; settings: Homo sapiens; MDA-MB-435 (Melanoma), 5 days, single dose on day 1
# From the text: as §1
# PC3 cells [20] = assay: Monolayer growth inhibition, crystal violet assay; type: cell-based; settings: Homo sapiens, PC-3; PC3 (Prostate), 5 days, single dose on day 1
# From the text: as §1
# SUM149 cells [21] = assay: Monolayer growth inhibition, crystal violet assay; type: cell-based; settings: Homo sapiens; SUM149 (TNBC, BRCA Mutant), 5 days, single dose on day 1
# From the text: as §1
# SUM149-PTXR cells [22] = assay: Monolayer growth inhibition, crystal violet assay; type: cell-based; settings: Homo sapiens; SUM149-PTXR (TNBC, BRCA Mutant), 5 days, single dose on day 1
# From the text: as §1
# All cell lines [23] = assay: Monolayer growth inhibition, crystal violet assay, range over all cell lines; type: cell-based; settings: 120 h; range of IC50 over all cell lines of the table; read-out: IC50 Values - Crystal Violet (5 Days), Range, All
# From the text: as §2
# MDA-MB-231 cells [24] = assay: Soft agar growth inhibition assay; type: cell-based; settings: Homo sapiens; MDA-MB-231 (TNBC), 14-22 days; read-out: IC50 Values - Soft Agar (14-22 Days)
# MDA-MB-468 cells [25] = assay: Soft agar growth inhibition assay; type: cell-based, Human; settings: Homo sapiens; MDA-MB-468 (TNBC), 14-22 days
# 4T1 cells [26] = assay: Soft agar growth inhibition assay; type: cell-based; settings: Mus musculus; 4T1 (TNBC), 14-22 days; read-out: IC50 Values - Soft Agar (14-22 Days)
# Experimental: Two agar (Alfa Aesar) solutions (0.8% w/v and 0.4% w/v) were prepared in ultrapure water. The 0.8% agar solution was mixed in equal volumes with 2× media previously prepared from powder (Life Technologies) following the manufacturer's instructions and filter sterilized. The 0.8% agar and media solution was added to 24 well plates (Mandel Scientific) at 500 μl per well. The plates were placed in a humidified incubator at 37° C. with 5% CO2. Next, the 0.4% agar solution was mixed in equal volumes with 2× media. Breast cancer cell lines were added to this solution to achieve a final concentration of 2×10^4 cells per well and […] was added to each well on top of the bottom agar and media layer. […] The plates were returned to the incubator for 10-32 days, with a re-dosing of compounds or DMSO every 7 days. After 10-32 days, colonies were counted in 3 different fields of view for each well.
# Representative compounds described herein were tested in the soft agar growth inhibition assay against the 4T1 breast cancer cell line.
# [27] = test system: phosphorylated Y-box binding protein-1 (YB-1) at serine 102 (P-YB-1S102); assay: Immunoblotting of cell signalling, loss of P-YB-1 in MDA-MB-231 cells; settings: Homo sapiens, MDA-MB-231, read-out: IC50 values for P-YB-1
# T47D cells [28] = assay: Monolayer growth inhibition, Alamar blue assay; type: cell-based, Human; settings: Homo sapiens; T47D (ER/PR), 5 days, single dose on day 1
# From the text: as §1
# T47D cells [29] = assay: Monolayer growth inhibition, crystal violet assay; type: cell-based; settings: Homo sapiens; T47D (ER/PR), 5 days, single dose on day 1
# From the text: as §2
Structure (SMILES),IC50 (4T1 cells [2]) [µM],IC50 (HCC1143 cells [3]) [µM],IC50 (HCC1937 cells [4]) [µM],IC50 (JIMT-1 cells [5]) [µM],IC50 (MDA-MB-231 cells [6]) [µM],IC50 (MDA-MB-435 cells [7]) [µM],IC50 (MDA-MB-468 cells [8]) [µM],IC50 (PC3 cells [9]) [µM],IC50 (SUM149 cells [10]) [µM],IC50 (SUM149-PTXR cells [11]) [µM],IC50 (All cell lines [12]) [µM],IC50 (HCC1937 cells [13]) [µM],IC50 (JIMT-1 cells [14]) [µM],IC50 (MDA-MB-468 cells [15]) [µM],IC50 (4T1 cells [16]) [µM],IC50 (HCC1143 cells [17]) [µM],IC50 (MDA-MB-231 cells [18]) [µM],IC50 (MDA-MB-435 cells [19]) [µM],IC50 (PC3 cells [20]) [µM],IC50 (SUM149 cells [21]) [µM],further results
"C[C@@H]1CNC(=O)c2cc3ccc(C(=O)Nc4cnn(Cc5ccc(CN)cc5)c4)nc3n21 [Compound 26, (R)—N-(1-(4-(aminomethyl)benzyl)-1H-pyrazol-4-yl)-9-methyl-6-oxo-6,7,8,9-tetrahydropyrido[3′,2′:4,5]pyrrolo[1,2-a]pyrazine-2-carboxamide hydrochloride salt]",6.2 ± 2.5,9.6 ± 6.1,5.6 ± 0.4,15.5 ± 6.6,7.4 ± 1.7,3.9 ± 1.3,2.5 ± 0.7,1.9 ± 0.8,9.8 ± 5.7,8.8 ± 2.5,1.9 to 15.5,6.6 ± 1.6,12.3 ± 3.2,1.7 ± 0.2,4.9 ± 1.1,7.3 ± 2.7,3.7 ± 1.8,1.6 ± 0.3,1.5 ± 0.5,6.5 ± 4.4,"Solubility after addition of 4M NaOH ([1]; 20 mg/ml in PBS, pH equal to 9): remained in solution; Solubility, 20 mg/ml Solution ([1]; 100 mM in DMSO diluted in PBS to 20 mg/ml, hydrochloride salt): Soluble; pH of 20 mg/ml solution ([1]; DMSO stock diluted in PBS, pH test strips, hydrochloride salt): 2-9; IC50 (SUM149-PTXR cells [22]): 6.5 ± 2.1 µM; IC50 (All cell lines [23]): 1.5 to 12.3 µM; IC50 (MDA-MB-231 cells [24]): 0.2 ± 0.1 µM; IC50 (MDA-MB-468 cells [25]): 2 ± 0.2 µM; IC50 (4T1 cells [26]): 5.3 ± 1.3 µM; IC50 [27]: 0.047 µM"
"C[C@@H]1CNC(=O)c2cc3ccc(C(=O)Nc4cnn(Cc5ccc(F)cc5F)c4)nc3n21 [Compound 23, (R)—N-(1-(2,4-difluorobenzyl)-1H-pyrazol-4-yl)-9-methyl-6-oxo-6,7,8,9-tetrahydropyrido[3′,2′:4,5]pyrrolo[1,2-a]pyrazine-2-carboxamide]",2.5 ± 0.8,9.7 ± 1.3,10.5 ± 1,19.8 ± 7.1,7.8 ± 2,1.1 ± 0.7,9.7 ± 1.8,10.7 ± 1.1,3 ± 2.4,5.1 ± 4,1.1 to 19.8,8.6 ± 3,15 ± 6.1,7.2 ± 1.5,1.8 ± 0.8,7.3 ± 3.4,3.6 ± 0.8,1.1 ± 0.8,6.8 ± 1.8,2.1 ± 1.6,"Solubility, 20 mg/ml Solution ([1]; 100 mM in DMSO diluted in DMEM growth media to 20 mg/ml): Precipitate; IC50 (T47D cells [28]): 6 ± 4.9 µM; IC50 (T47D cells [29]): 4.7 ± 4.9 µM; IC50 (SUM149-PTXR cells [22]): 5 ± 2.4 µM; IC50 (All cell lines [23]): 1.1 to 15 µM; IC50 (MDA-MB-231 cells [24]): 0.3 ± 0.2 µM; IC50 (MDA-MB-468 cells [25]): 4 ± 0.8 µM; IC50 (4T1 cells [26]): 2.4 ± 0.6 µM; IC50 [27]: 0.033 µM"
